Measurements from ChEMBL document CHEMBL5303304, “EUbOPEN Chemogenomics Library - IncuCyte” (2023).

What was measured:
Format in all cases: toxicity, cell-based
Fibroblast = assay: Incucyte cell viability with human fibroblast; conditions: 10 µM, compound concentration 10 uM
HEK-293T = assay: Incucyte cell viability with HEK293T; conditions: human, 10 µM, compound concentration 10 uM
U2OS = assay: Incucyte cell viability with U2OS; conditions: human, 10 µM, compound concentration 10 uM
Further: unitless GR value; below 1 slowed growth and below 0 cell loss.

Question: Which “Growth Rate” value (Fibroblast; 0 h, replicate number 1) does the source give for CN1CC[C@@]23CCCC[C@@H]2[C@@H]1Cc1ccc(O)cc13.O=C(O)C(O)C(O)C(=O)O here?
Answer: Its value is 0.67.

Question: And the “Growth Rate” value (Fibroblast; 6 h, replicate number 2)?
Answer: Its value is -0.93.

Question: What about the “Growth Rate” value (Fibroblast; 12 h, replicate number 1) of the same compound?
Answer: The value was -0.94.

Question: What about the “Growth Rate” value (Fibroblast; 12 h, replicate number 2) of the same compound?
Answer: Its value is -0.3.

Question: What about the “Growth Rate” value (Fibroblast; 18 h, replicate number 1) of the same compound?
Answer: Its value is 0.72.

Question: What about the “Growth Rate” value (Fibroblast; 18 h, replicate number 2) of the same compound?
Answer: Its value is 0.13.

Question: What about the “Growth Rate” value (Fibroblast; 24 h, replicate number 2) of the same compound?
Answer: The value was 0.19.

Question: And the “Growth Rate” value (HEK-293T; 0 h, replicate number 1)?
Answer: Its value is 0.54.

Question: What about the “Growth Rate” value (HEK-293T; 0 h, replicate number 2) of the same compound?
Answer: The value was 0.37.

Question: And the “Growth Rate” value (U2OS; 0 h, replicate number 2)?
Answer: The value was -0.41.

Question: For CC(C)c1ccc(/C=N/NC(=O)c2ccc(O)cc2)cc1, which “Growth Rate” value (Fibroblast; 6 h, replicate number 1) is on record?
Answer: Its value is -0.99.

Question: What about the “Growth Rate” value (Fibroblast; 6 h, replicate number 2) of the same compound?
Answer: Its value is 0.53.

Question: And the “Growth Rate” value (Fibroblast; 12 h, replicate number 2)?
Answer: The value was 0.42.

Question: And the “Growth Rate” value (Fibroblast; 18 h, replicate number 2)?
Answer: The value was 0.57.

Question: What about the “Growth Rate” value (Fibroblast; 24 h, replicate number 2) of the same compound?
Answer: The value was 0.46.

Question: What about the “Growth Rate” value (HEK-293T; 0 h, replicate number 1) of the same compound?
Answer: The value was 0.78.

Question: What about the “Growth Rate” value (HEK-293T; 6 h, replicate number 1) of the same compound?
Answer: Its value is 0.39.

Question: And the “Growth Rate” value (HEK-293T; 6 h, replicate number 2)?
Answer: Its value is 0.04.

Question: What about the “Growth Rate” value (HEK-293T; 12 h, replicate number 1) of the same compound?
Answer: The value was 0.85.

Question: And the “Growth Rate” value (HEK-293T; 12 h, replicate number 2)?
Answer: The value was 0.36.

Question: What about the “Growth Rate” value (HEK-293T; 18 h, replicate number 1) of the same compound?
Answer: The value was 0.85.

Question: What about the “Growth Rate” value (HEK-293T; 18 h, replicate number 2) of the same compound?
Answer: The value was 0.58.

Question: What about the “Growth Rate” value (HEK-293T; 24 h, replicate number 1) of the same compound?
Answer: Its value is 0.81.

Question: What about the “Growth Rate” value (HEK-293T; 24 h, replicate number 2) of the same compound?
Answer: Its value is 0.63.

Question: What about the “Growth Rate” value (U2OS; 0 h, replicate number 1) of the same compound?
Answer: The value was -0.47.

Question: What about the “Growth Rate” value (U2OS; 0 h, replicate number 2) of the same compound?
Answer: The value was -0.95.

Question: What about the “Growth Rate” value (U2OS; 24 h, replicate number 2) of the same compound?
Answer: The value was 0.98.

Question: Which results are given for Cc1[nH]nc2ccc(-c3cncc(OCC(N)Cc4c[nH]c5ccccc45)c3)cc12 (stereo not given)?
Answer: Growth Rate (Fibroblast; 6 h, replicate number 1): -1; Growth Rate (Fibroblast; 18 h, replicate number 2): 0.88; Growth Rate (Fibroblast; 24 h, replicate number 2): 0.21; Growth Rate (HEK-293T; 0 h, replicate number 1): -0.53; Growth Rate (HEK-293T; 0 h, replicate number 2): -0.56; Growth Rate (HEK-293T; 12 h, replicate number 2): 0.41; Growth Rate (HEK-293T; 18 h, replicate number 1): 0.65; Growth Rate (HEK-293T; 18 h, replicate number 2): 0.08; Growth Rate (HEK-293T; 24 h, replicate number 1): 0.19; Growth Rate (HEK-293T; 24 h, replicate number 2): -0.02; Growth Rate (U2OS; 0 h, replicate number 2): 0.54; Growth Rate (U2OS; 18 h, replicate number 1): 0.51; Growth Rate (U2OS; 24 h, replicate number 1): 0.09; Growth Rate (U2OS; 24 h, replicate number 2): 0.13

Question: Which “Growth Rate” value (Fibroblast; 0 h, replicate number 2) does the source give for Cc1[nH]nc2ccc(-c3cncc(OCC(N)Cc4ccccc4)c3)cc12 (stereo not given) here?
Answer: The value was -0.26.

Question: And the “Growth Rate” value (Fibroblast; 6 h, replicate number 1)?
Answer: The value was -1.

Question: What about the “Growth Rate” value (Fibroblast; 24 h, replicate number 2) of the same compound?
Answer: Its value is 0.73.

Question: And the “Growth Rate” value (HEK-293T; 0 h, replicate number 1)?
Answer: The value was -0.76.

Question: And the “Growth Rate” value (HEK-293T; 0 h, replicate number 2)?
Answer: Its value is -0.85.

Question: And the “Growth Rate” value (HEK-293T; 18 h, replicate number 2)?
Answer: Its value is 0.44.

Question: And the “Growth Rate” value (HEK-293T; 24 h, replicate number 1)?
Answer: Its value is 0.9.

Question: What about the “Growth Rate” value (HEK-293T; 24 h, replicate number 2) of the same compound?
Answer: The value was 0.21.

Question: What about the “Growth Rate” value (U2OS; 18 h, replicate number 2) of the same compound?
Answer: Its value is 0.7.

Question: What about the “Growth Rate” value (U2OS; 24 h, replicate number 1) of the same compound?
Answer: The value was 0.35.

Question: What about the “Growth Rate” value (U2OS; 24 h, replicate number 2) of the same compound?
Answer: Its value is 0.28.

Question: Which “Growth Rate” value (Fibroblast; 0 h, replicate number 1) does the source give for CCn1c(-c2ccncc2)cc2c1CCNC2=O here?
Answer: The value was -0.22.

Question: What about the “Growth Rate” value (Fibroblast; 6 h, replicate number 1) of the same compound?
Answer: Its value is -0.99.

Question: And the “Growth Rate” value (HEK-293T; 0 h, replicate number 1)?
Answer: The value was -0.57.

Question: What about the “Growth Rate” value (HEK-293T; 0 h, replicate number 2) of the same compound?
Answer: The value was -0.66.

Question: What about the “Growth Rate” value (HEK-293T; 6 h, replicate number 1) of the same compound?
Answer: Its value is 0.22.

Question: What about the “Growth Rate” value (HEK-293T; 6 h, replicate number 2) of the same compound?
Answer: Its value is -0.3.

Question: And the “Growth Rate” value (HEK-293T; 12 h, replicate number 1)?
Answer: The value was -0.65.

Question: And the “Growth Rate” value (HEK-293T; 12 h, replicate number 2)?
Answer: The value was -0.55.

Question: What about the “Growth Rate” value (HEK-293T; 18 h, replicate number 1) of the same compound?
Answer: The value was -0.57.

Question: What about the “Growth Rate” value (HEK-293T; 18 h, replicate number 2) of the same compound?
Answer: Its value is -0.47.

Question: And the “Growth Rate” value (HEK-293T; 24 h, replicate number 1)?
Answer: The value was -0.56.

Question: And the “Growth Rate” value (HEK-293T; 24 h, replicate number 2)?
Answer: Its value is -0.39.

Question: What about the “Growth Rate” value (U2OS; 0 h, replicate number 1) of the same compound?
Answer: The value was -0.56.

Question: And the “Growth Rate” value (U2OS; 0 h, replicate number 2)?
Answer: The value was 0.39.

Question: And the “Growth Rate” value (U2OS; 12 h, replicate number 1)?
Answer: Its value is 0.78.

Question: And the “Growth Rate” value (U2OS; 12 h, replicate number 2)?
Answer: Its value is 0.44.

Question: And the “Growth Rate” value (U2OS; 18 h, replicate number 1)?
Answer: The value was 0.29.

Question: And the “Growth Rate” value (U2OS; 18 h, replicate number 2)?
Answer: Its value is 0.12.

Question: And the “Growth Rate” value (U2OS; 24 h, replicate number 1)?
Answer: The value was 0.13.

Question: What about the “Growth Rate” value (U2OS; 24 h, replicate number 2) of the same compound?
Answer: Its value is 0.08.

Question: CC1(C)OC(=O)c2ccc(Nc3ncc(-c4nnco4)c(N[C@H](CO)c4ccccc4)n3)cc21 was tested. Which “Growth Rate” value (Fibroblast; 0 h, replicate number 2) did it give?
Answer: The value was -0.49.

Question: What about the “Growth Rate” value (Fibroblast; 6 h, replicate number 1) of the same compound?
Answer: The value was -1.

Question: And the “Growth Rate” value (HEK-293T; 0 h, replicate number 1)?
Answer: The value was 0.28.

Question: And the “Growth Rate” value (HEK-293T; 0 h, replicate number 2)?
Answer: The value was -0.28.

Question: What about the “Growth Rate” value (HEK-293T; 12 h, replicate number 1) of the same compound?
Answer: Its value is 0.23.

Question: And the “Growth Rate” value (HEK-293T; 12 h, replicate number 2)?
Answer: Its value is -0.01.

Question: What about the “Growth Rate” value (HEK-293T; 18 h, replicate number 1) of the same compound?
Answer: Its value is 0.12.

Question: And the “Growth Rate” value (HEK-293T; 18 h, replicate number 2)?
Answer: The value was -0.01.

Question: What about the “Growth Rate” value (HEK-293T; 24 h, replicate number 1) of the same compound?
Answer: Its value is 0.09.

Question: And the “Growth Rate” value (HEK-293T; 24 h, replicate number 2)?
Answer: The value was -0.02.

Question: What about the “Growth Rate” value (U2OS; 0 h, replicate number 2) of the same compound?
Answer: The value was -0.4.

Question: And the “Growth Rate” value (U2OS; 12 h, replicate number 1)?
Answer: The value was 0.78.

Question: And the “Growth Rate” value (U2OS; 18 h, replicate number 1)?
Answer: The value was 0.44.

Question: And the “Growth Rate” value (U2OS; 18 h, replicate number 2)?
Answer: Its value is 0.69.

Question: And the “Growth Rate” value (U2OS; 24 h, replicate number 1)?
Answer: The value was 0.47.

Question: What about the “Growth Rate” value (U2OS; 24 h, replicate number 2) of the same compound?
Answer: The value was 0.62.

Question: Which results are given for Cc1ccccc1C1C(=O)N(C)c2cnc(Nc3ccc(S(N)(=O)=O)cc3)nc2N1C (stereo not given)?
Answer: Growth Rate (Fibroblast; 0 h, replicate number 1): -0.58; Growth Rate (Fibroblast; 0 h, replicate number 2): -0.9; Growth Rate (Fibroblast; 6 h, replicate number 1): -1; Growth Rate (HEK-293T; 0 h, replicate number 1): -0.37; Growth Rate (HEK-293T; 0 h, replicate number 2): -0.88; Growth Rate (U2OS; 0 h, replicate number 1): -0.73; Growth Rate (U2OS; 0 h, replicate number 2): -0.83

Question: What does the source list for CC1=NC(C=C2C(=O)Nc3ccc(F)cc32)=C(C)C1C(=O)NCC(O)CN1CCOCC1 (stereo not given)?
Answer: Growth Rate (Fibroblast; 0 h, replicate number 1): 0.4; Growth Rate (Fibroblast; 6 h, replicate number 1): -0.99; Growth Rate (HEK-293T; 0 h, replicate number 1): 0.76; Growth Rate (HEK-293T; 0 h, replicate number 2): -0.67; Growth Rate (HEK-293T; 24 h, replicate number 2): 0.99; Growth Rate (U2OS; 0 h, replicate number 2): -0.99

Question: Which results are given for O=C(/N=c1\sccn1Cc1ccccc1)c1c[nH]c2ncccc12?
Answer: Growth Rate (Fibroblast; 6 h, replicate number 1): -1; Growth Rate (HEK-293T; 0 h, replicate number 1): -0.78; Growth Rate (HEK-293T; 0 h, replicate number 2): -0.86; Growth Rate (U2OS; 0 h, replicate number 2): -0.96
